In patent US20260109678A1, “SUBSTITUTED PHENOTHIAZINES AS FERROPTOSIS INHIBITORS” (Universiteit Antwerpen, priority 2022, published 2026):
In brackets after ≈: the same amount, converted by molar mass. Structures can show the parent of a compound that is named as a salt.

Key:
[1] = Fluorescence-enabled inhibited autoxidation (FENIX) assay; format: biochemical; conditions: RTA 2 μM, liposomes 1 mM; for Logkinh: FENIX assay; for kinh (10^4 M^−1s^−1) ± SD: inhibition rate constant, STY-BODIPY 1 μM, DTUN initiator, 37° C.
Procedure: Unless otherwise stated, laboratory reagent grade solvents were used. Reagents were obtained from various commercial sources and were used without any prior purification. L-α-phosphatidylcholine (Egg, Chicken), powder was purchased from Merck Life Science B.V.. DTUN and STY-BODIPY were synthesized according to methods described in Shah et al. (2019) Cell Chem. Biol. 26, 1594-1607. Fluorescence was measured using the UV/vis spectrophotometer Synergy MX, Biotek with Gen5.
In order to quantify radical trapping antioxidant activity in phospholipid bilayers to a clear bottom black-walled 96-well plate for fluorescence-base assays (Invitrogen by Thermo Fisher Scientific) was added 250 μL of a solution containing liposomes (1 mM), styrene-conjugated BODIPY (STY-BODIPY, 1 μM), and the respective radical trapping antioxidant (RTA, 2 μM). The solutions were made in larger volumes in Eppendorfs, pre-mixed and 250 μL aliquot was transferred to each well. The plate was incubated for 10 minutes at 37° C. in the BioTek SynergyMx plate reader, followed by a fast-mixing protocol for 5 minutes. The plate was ejected from the plate reader and autoxidation was initiated by the addition of a 50 μL aliquot of (E)-1,2-bis((2-methyldecan-2-yl)oxy)diazene (DTUN, 0.2 mM in EtOH/PBS 3/47, v/v), followed by another mixing protocol for 5 minutes. Data were acquired by excitation probes at 488 nm and emission was measured at 518 nm (read intervals 1.0 min). Kinetic read parameters: (i) optic position: bottom, (ii) gain: 80, (iii) bandwidth: 9.0. The results of the FENIX assay are presented in Table 2 as inhibition rate constants (kinh), logkinh and stoichiometries (n) of tested compounds.

[2] = Kinetic solubility (turbidimetric method); format: physicochemical; conditions: aqueous buffer, kinetic from dmso stock, PBS buffer pH 7.4, 2 hours at 37° C., read-out: Kin. solubility

Row | Compound | Logkinh [1] | kinh (10^4 M^−1s^−1) ± SD [1] | solubility at 2 h [2] [µM]
1 | O=C(NCCN1CCOCC1)c1cc(NC2CCCC2)c2c(c1)Sc1ccccc1N2 [CPD-016, 1-(Cyclopentylamino)-N-(2-morpholinoethyl)-10H-phenothiazine-3-carboxamide] | 1.96 ± 0.08 | 4.78 ± 0.17 10^4 M^−1s^−1 | –
2 | CNCCNC(=O)c1cc(NCc2ccccc2)c2c(c1)Sc1ccccc1N2 [CPD-017, 1-(Benzylamino)-N-(2-(methylamino)ethyl)-10H-phenothiazine-3-carboxamide trihydrochloride] | 2.03 ± 0.02 | 2.27 ± 0.03 10^4 M^−1s^−1 | –
3 | CNCCNC(=O)c1cc(NCc2ccc(F)cc2)c2c(c1)Sc1ccccc1N2 [CPD-018, 1-((4-Fluorobenzyl)amino)-N-(2-(methylamino)ethyl)-10H-phenothiazine-3-carboxamide trihydrochloride] | 2.10 ± 0.09 | 2.47 ± 0.32 10^4 M^−1s^−1 | –
4 | CNCCNC(=O)c1cc(NC2CCCCC2)c2c(c1)Sc1ccccc1N2 [CPD-019, 1-(Cyclohexylamino)-N-(2-(methylamino)ethyl)-10H-phenothiazine-3-carboxamide trihydrochloride] | 1.91 ± 0.15 | 4.42 ± 0.22 10^4 M^−1s^−1 | –
5 | CNCCNC(=O)c1cc(NC2CCCC2)c2c(c1)Sc1ccccc1N2 [CPD-020, 1-(Cyclopentylamino)-N-(2-(methylamino)ethyl)-10H-phenothiazine-3-carboxamide trihydrochloride] | 1.97 ± 0.12 | 3.56 ± 0.07 10^4 M^−1s^−1 | –
6 | NCCNC(=O)c1cc(NCc2ccccc2)c2c(c1)Sc1ccccc1N2 [CPD-021, N-(2-aminoethyl)-1-(benzylamino)-10H-phenothiazine-3-carboxamide trihydrochloride] | 2.06 ± 0.07 | 2.40 ± 0.02 10^4 M^−1s^−1 | –
7 | NCCNC(=O)c1cc(NCc2ccc(F)cc2)c2c(c1)Sc1ccccc1N2 [CPD-022, N-(2-aminoethyl)-1-((4-fluorobenzyl)amino)-10H-phenothiazine-3-carboxamide trihydrochloride] | 1.74 ± 0.12 | 1.96 ± 0.30 10^4 M^−1s^−1 | –
8 | NCCNC(=O)c1cc(NCc2ccc(F)cc2F)c2c(c1)Sc1ccccc1N2 [CPD-023, N-(2-aminoethyl)-1-((2,4-difluorobenzyl)amino)-10H-phenothiazine-3-carboxamide trihydrochloride] | 1.80 ± 0.01 | 3.11 ± 0.29 10^4 M^−1s^−1 | –
9 | NCCNC(=O)c1cc(NCc2cc(F)cc(F)c2)c2c(c1)Sc1ccccc1N2 [CPD-024, N-(2-aminoethyl)-1-((3,5-difluorobenzyl)amino)-10H-phenothiazine-3-carboxamide trihydrochloride] | 1.95 ± 0.33 | 3.41 ± 0.21 10^4 M^−1s^−1 | –
10 | NCCNC(=O)c1cc(NCc2ccc(C(F)(F)F)cc2)c2c(c1)Sc1ccccc1N2 [CPD-025, N-(2-aminoethyl)-1-((4-(trifluoromethyl)benzyl)amino)-10H-phenothiazine-3-carboxamide trihydrochloride] | 1.78 ± 0.02 | 3.75 ± 0.50 10^4 M^−1s^−1 | –
11 | O=C(c1cc(NCc2ccccc2)c2c(c1)Sc1ccccc1N2)N1CCNCC1 [CPD-026, (1-(Benzylamino)-10H-phenothiazin-3-yl)(piperazin-1-yl)methanone trihydrochloride] | 2.11 ± 0.09 | 2.28 ± 0.24 10^4 M^−1s^−1 | –
12 | O=C(c1cc(NCc2ccc(F)cc2)c2c(c1)Sc1ccccc1N2)N1CCNCC1 [CPD-027, (1-((4-Fluorobenzyl)amino)-10H-phenothiazin-3-yl)(piperazin-1-yl)methanone trihydrochloride] | 2.13 ± 0.15 | 2.52 ± 0.43 10^4 M^−1s^−1 | –
13 | O=C(NCCN1CCNCC1)c1cc(NCc2ccccc2)c2c(c1)Sc1ccccc1N2 [CPD-028, 1-(Benzylamino)-N-(2-(piperazin-1-yl)ethyl)-10H-phenothiazine-3-carboxamide tetrahydrochloride] | 1.82 ± 0.09 | 2.59 ± 0.21 10^4 M^−1s^−1 | –
14 | O=C(NCCN1CCNCC1)c1cc(NCc2ccc(F)cc2)c2c(c1)Sc1ccccc1N2 [CPD-029, 1-((4-Fluorobenzyl)amino)-N-(2-(piperazin-1-yl)ethyl)-10H-phenothiazine-3-carboxamide tetrahydrochloride] | 1.97 ± 0.13 | 2.64 ± 0.15 10^4 M^−1s^−1 | –
15 | O=C(NCCN1CCNCC1)c1cc(NC2CCCCC2)c2c(c1)Sc1ccccc1N2 [CPD-030, 1-(Cyclohexylamino)-N-(2-(piperazin-1-yl)ethyl)-10H-phenothiazine-3-carboxamide tetrahydrochloride] | 2.13 ± 0.13 | 4.24 ± 0.05 10^4 M^−1s^−1 | –
16 | O=C(c1ccc2c(c1)Sc1ccccc1N2)N1CCOCC1 [CPD-031, Morpholino(10H-phenothiazin-3-yl)methanone] | 2.11 ± 0.04 | 1.15 ± 0.01 10^4 M^−1s^−1 | –
17 | O=C(NCCN1CCOCC1)c1ccc2c(c1)Sc1ccccc1N2 [CPD-032, N-(2-morpholinoethyl)-10H-phenothiazine-3-carboxamide] | 2.29 ± 0.11 | 1.14 ± 0.01 10^4 M^−1s^−1 | –
18 | CNCCNC(=O)c1ccc2c(c1)Sc1ccccc1N2 [CPD-033, N-(2-(methylamino)ethyl)-10H-phenothiazine-3-carboxamide dihydrochloride] | 2.68 ± 0.07 | 1.21 ± 0.01 10^4 M^−1s^−1 | –
19 | NCCNC(=O)c1ccc2c(c1)Sc1ccccc1N2 [CPD-034, N-(2-aminoethyl)-10H-phenothiazine-3-carboxamide dihydrochloride] | 2.41 ± 0.13 | 1.23 ± 0.01 10^4 M^−1s^−1 | –
20 | O=C(c1ccc2c(c1)Sc1ccccc1N2)N1CCNCC1 [CPD-035, (10H-phenothiazin-3-yl)(piperazin-1-yl)methanone dihydrochloride] | 2.51 ± 0.05 | 1.26 ± 0.04 10^4 M^−1s^−1 | –
21 | O=C(NCCN1CCNCC1)c1ccc2c(c1)Sc1ccccc1N2 [CPD-036, N-(2-(piperazin-1-yl)ethyl)-10H-phenothiazine-3-carboxamide trihydrochloride] | 2.30 ± 0.09 | 1.24 ± 0.04 10^4 M^−1s^−1 | –
22 | O=Cc1ccc2c(c1)Sc1ccccc1N2 [CPD-037, 10H-phenothiazine-3-carbaldehyde] | – | – | 12.5 to 50 (≈ 2.84 to 11.4 µg/mL)
23 | c1ccc2c(c1)Nc1ccc(CNCCN3CCOCC3)cc1S2 [CPD-038] | 3.77 ± 0.16 | 1.03 ± 0.01 10^4 M^−1s^−1 | –
